Source: patent US8211660B2, “In-vivo monitoring of circulating apoptotic cells” (The General Hospital Corporation, priority 2004, dated 2012)

Test system: MatLyLu mouse prostate cancer cells
Assay: Apoptosis of camptothecin-pretreated MatLyLu cells verified by conventional flow cytometry (FITC-annexin V / propidium iodide)
Type: cell-based
Settings: MatLyLu cells pretreated with camptothecin
Method: MatLyLu […] prostate cancer cells pretreated with camptothecin were employed as a positive control. It was verified by conventional flow cytometry that more than about 80% of the camptothecin-treated cells undergo apoptosis (i.e. >80% of the treated cells were FITC-annexin V^+ positive and propidium iodide negative). The camptothecin-treated cells were then labeled with the AF647-conjugated annexin-V and injected intravenously into the mouse. The circulating annexin-V^+ cells were measured by focusing a He—Ne laser beam having a wavelength of 633 nm through a slit onto an ear vessel (typically a small artery) and confocally detecting the fluorescent bursts (peaks) as individual cells flowed through the probe beam. The emitted fluorescence was detected by a photomultiplier tube and was digitized for analysis. The confocal detection of the emitted fluorescence allowed continuous monitoring over the measurement period of the labeled cells flowing through the vessel.

CC[C@@]1(O)C(=O)OCc2c1cc1n(c2=O)Cc2cc3ccccc3nc2-1 [camptothecin]
treated cells undergoing apoptosis (FITC-annexin V positive and propidium iodide negative): more than 80%
